Measurements reported in patent US9187468B2, “Topical ocular analgesic agents” (Novartis AG, priority 2013, dated 2015).
Blank lines part the entries; values can stand above or below the compound they belong to.

How the values were obtained:
[1] = tested on: formalin-induced blinking in rats; test: Formalin blink test (topical ocular analgesia); type: in vivo; conditions: rat
Procedure: Formalin was prepared at 0.1% final in 0.9% saline from a stock of 10% neutral buffered formalin (Sigma-Aldrich, St. Louis, Mo.). […] The structure of Compound A is.
All compounds were formulated in a 10% hydroxypropyl-β-cyclodextrin (HPβCD) 1×PBS vehicle. Compounds were prepared as 1% stock solutions in absolute ethanol. An appropriate amount of the stock solution was transferred to a glass vial from which the solvent was evaporated, then the compound was re-suspended in appropriate volumes of vehicle and ball-milled overnight at 4° C. All compounds were tested at 0.01%, 0.1%, 0.3%, and 1% w/v, unless otherwise noted. Alcaine® (Alcon Laboratories, Fort Worth, Tex.) was used as a reference compound.
Rats were dosed with 5 μL, of formalin vehicle (0.9% sterile saline) in OS eye. After a 5-second acclimation period, blinks were counted for one minute. Test compound or vehicle was dosed (5 μL) on OD eye. At 5 minutes after test compound treatment (unless otherwise noted), 0.1% formalin was dosed in the OD eye. Blinks were counted in the same manner as the OS eye.
The efficacy data for these compounds are plotted in FIGS. 1, 3, 4, and 5, with % inhibition of formalin-induced blink rate indicated above the bar for each tested concentration.

[2] = tested on: nylon fiber ocular surface touching-induced blinking in rats; test: Cochet-Bonnet esthesiometry test (anesthetic activity); type: in vivo; conditions: rat, topical ocular; for anesthesia in Cochet-Bonnet esthesiometry test: concentration range that afforded efficacious analgesia in the formalin blink test
Procedure: Cochet-Bonnet Esthesiometry Test
For the Cochet-Bonnet esthesiometry test that measures anesthetic activity, whiskers were trimmed from test animals or vehicle animals. OD eye of animal was dosed with 5 μL of test compound or vehicle. The animal was restrained in a clear plastic cone (DecapiCone®, Alcon Laboratories, Fort Worth, Tex.) which was trimmed as necessary to allow access to the OD eye. Five minutes after application of test compound, a Cochet-Bonnet esthesiometer, with a nylon monofilament diameter of 0.12 mm and length of 40 mm (0.8 g/mm^2), was applied perpendicularly to the central cornea of the OD eye 10 times. This test was performed three times on each animal within 2 minutes. Data were expressed as the mean number of blinks elicited from 10 stimuli.

[3] = tested on: rat spinal ligation model of neuropathic pain; conditions: orally dosed at 10 mg/kg, comparators at 3-10 times higher doses; cited from earlier work

anesthetic effect (touch-induced blinking) ([2]; 0.1% and 0.2% doses): elicited significant anesthesia | anesthesia in Cochet-Bonnet esthesiometry test [2]: profound anesthesia
Structure (SMILES): Fc1cccc(Cn2ccc3c(OC4CCN(Cc5cscn5)CC4)ncnc32)c1F [Compound C]
dose dependence of analgesic efficacy ([1]; 0.01-0.2% w/v): dose-related increase in efficacy | maximum efficacy (% inhibition of formalin-induced blink rate) ([1]; top tested dose of 0.01-0.2% w/v range): 61%

Structure (SMILES): NC(=O)c1nc(-c2cccc(-c3ccccc3OC(F)(F)F)c2)cs1 [Compound B, 4-(2′-(trifluoromethoxy)-[1,1′-biphenyl]-3-yl)thiazole-2-carboxamide]
% reduction of formalin-induced blink rate ([1]; 0.01% w/v dose): no effect | % reduction of formalin-induced blink rate ([1]; 0.1% w/v dose): no effect | % reduction of formalin-induced blink rate ([1]; 0.3% w/v dose): ~40% | % reduction of formalin-induced blink rate ([1]; 1% w/v dose): ~40% | therapeutic efficacy vs mexiletene, lamotrigene and carbamazepine [3]: significantly more therapeutically efficacious

anesthesia in Cochet-Bonnet esthesiometry test [2]: did not elicit observable anesthesia
Structure (SMILES): CC(=O)Nc1cccc(Nc2ncnc(N3CCC(OCc4ccc(OC(F)(F)F)cc4)CC3)n2)c1C [Compound 1]
maximum efficacy as topical ocular analgesic compared to Compounds A and B ([1]; FIG. 1 vs FIGS. 3 and 4): more efficacious | potency as topical ocular analgesic compared to Compounds A and B ([1]; FIG. 1 vs FIGS. 3 and 4): significantly more potent | % reduction of formalin-induced blink rate vs vehicle ([1]; drug concentrations ≧0.05% w/v (tested 0.01%-0.3% w/v)): > 50% | anesthetic effect (touch-induced blinking) compared to vehicle ([2]; drug concentrations up to 0.3% w/v (0.05-0.3%)): did not elicit a statistically significant anesthetic effect

Structure (SMILES): CCCCCN1C(=O)C2(COc3cc4c(cc32)OCO4)c2ccccc21 (stereo not drawn) [Compound A, 1′-pentyl-6H-spiro[[1,3]dioxolo[4,5-f]benzofuran-7,3′-indolin]-2′-one]
% reduction of formalin-induced blink rate ([1]; 0.1% w/v dose): 27%
